Test results from ChEMBL document CHEMBL1125556, “Fluoroquinolones: relationships between structural variations, mammalian cell cytotoxicity, and antimicrobial activity” (J Med Chem, 1992).
In brackets after ≈: the same amount, converted by molar mass.

Key:
[1] = Antibacterial activity against five Gram-negative bacteria; type: functional
V79 = assay: Mammalian cell cytotoxicity test in chinese hamster V79 cells (clonogenic cytotoxicity); type: functional, cell-based
[2] = Cricetulus griseus, V79, read-out: IC50

| Compound | MIC [1] [µg/mL] | MIC ([1]; read-out: MIC) [µg/mL] | IC50 (V79; [2]) [µg/mL] | IC50 (V79; v79) [µg/mL] |
| --- | --- | --- | --- | --- |
| CCNCC1CCN(c2cc3c(cc2F)c(=O)c(C(=O)O)cn3C2CC2)C1 (stereo in doubt; 16) | 0.46 (≈ 1.23 µM) | – | – | – |
| NCC1CCN(c2nc3c(cc2F)c(=O)c(C(=O)O)cn3C2CC2)C1 (configuration not stated) | – | 0.14 (≈ 0.404 µM) | 51 (≈ 147 µM) | – |
| NCC1CCN(c2c(F)cc3c(=O)c(C(=O)O)cn(C4CC4)c3c2C(F)(F)F)C1 (configuration not stated) | – | 0.52 (≈ 1.26 µM) | 38 (≈ 91.9 µM) | – |
| CC1CN(c2nc3c(cc2F)c(=O)c(C(=O)O)cn3C2CC2)CC(C)N1 (configuration not stated) | – | 0.17 (≈ 0.472 µM) | 250 (≈ 694 µM) | – |
| CCNCC1CCN(c2nc3c(cc2F)c(=O)c(C(=O)O)cn3C2CC2)C1 (configuration not stated) | – | 0.21 (≈ 0.561 µM) | 160 (≈ 427 µM) | – |
| CCNCC1CCN(c2cc3c(cc2F)c(=O)c(C(=O)O)cn3CC)C1 (configuration not stated) | – | 0.56 (≈ 1.55 µM) | 310 (≈ 858 µM) | – |
| CCc1c(F)c(N2CCC(N)C2)cc2c1c(=O)c(C(=O)O)cn2C1CC1 (configuration not stated) | – | 1.81 (≈ 5.04 µM) | 46 (≈ 128 µM) | – |
| NC1CCN(c2c(F)cc3c(=O)c(C(=O)O)cn(C4CC4)c3c2C(F)(F)F)CC1 | – | 0.26 (≈ 0.629 µM) | 20 (≈ 48.4 µM) | – |
| CCNCC1CCN(c2c(F)c(NC)c3c(=O)c(C(=O)O)cn(C4CC4)c3c2F)C1 (configuration not stated) | – | 0.69 (≈ 1.64 µM) | 53 (≈ 126 µM) | – |
| CC1COc2c(N3CCN(C)CC3)c(F)cc3c(=O)c(C(=O)O)cn1c23 (configuration not stated) [OFLOXACIN] | – | 0.2 (≈ 0.553 µM) | > 500 | – |
| NC1CCN(c2c(F)c(F)c3c(=O)c(C(=O)O)cn(C4CC4)c3c2C(F)(F)F)C1 (configuration not stated) | – | 25 (≈ 59.9 µM) | 190 (≈ 455 µM) | – |
| CC1CN(c2c(F)cc3c(=O)c(C(=O)O)cn(C4CC4)c3c2Cl)CC(C)N1 (configuration not stated) | – | 0.23 (≈ 0.584 µM) | 140 (≈ 355 µM) | – |
| CNCC1(C)CCN(c2c(F)cc3c(=O)c(C(=O)O)cn(C4CC4)c3c2F)C1 (configuration not stated) | – | 0.23 (≈ 0.588 µM) | 8 (≈ 20.4 µM) | – |
| COc1c(N2CCC(N)C2)c(F)cc2c(=O)c(C(=O)O)cn(-c3ccc(F)cc3F)c12 (configuration not stated) | – | 0.35 (≈ 0.808 µM) | 290 (≈ 669 µM) | – |
| CCNCC1CCN(c2c(F)cc3c(=O)c(C(=O)O)cn(CC)c3c2F)C1 (configuration not stated) [MERAFLOXACIN] | – | 0.2 (≈ 0.527 µM) | 160 (≈ 422 µM) | – |
| CC1CN(c2c(F)cc3c(=O)c(C(=O)O)cn(-c4ccc(F)cc4F)c3c2C(F)(F)F)CCN1 (configuration not stated) | – | 4.14 (≈ 8.53 µM) | > 500 | – |
| CC1(N)CCN(c2c(F)cc3c(=O)c(C(=O)O)cn(C4CC4)c3c2C(F)(F)F)C1 (configuration not stated) | – | 1 (≈ 2.42 µM) | 110 (≈ 266 µM) | – |
| CC1(CN)CCN(c2cc3c(cc2F)c(=O)c(C(=O)O)cn3C2CC2)C1 (configuration not stated) | – | 0.52 (≈ 1.45 µM) | 23 (≈ 64 µM) | – |
| NC1CCN(c2c(F)cc3c(=O)c(C(=O)O)cn(C4CC4)c3c2Cl)C1 (stereo in doubt; 33a) [CLINAFLOXACIN] | – | – | – | 26 (≈ 71.1 µM) |
| O=C(O)c1cn(C2CC2)c2cc(N3CCNCC3)c(F)cc2c1=O [CIPROFLOXACIN] | 0.1 (≈ 0.302 µM) | 0.1 (≈ 0.302 µM) | 380 (≈ 1150 µM) | 380 (≈ 1150 µM) |
| NC1CCN(c2c(F)cc3c(=O)c(C(=O)O)cn(C4CC4)c3c2Cl)C1 (stereo in doubt; 46) [CLINAFLOXACIN] | 0.03 (≈ 0.082 µM) | – | – | 26 (≈ 71.1 µM) |
| NC1CCN(c2c(F)cc3c(=O)c(C(=O)O)cn(C4CC4)c3c2F)C1 (stereo in doubt; 21) | – | 0.04 (≈ 0.115 µM) | 30 (≈ 85.9 µM) | – |
| CCNCC1CCN(c2cc3c(cc2F)c(=O)c(C(=O)O)cn3C2CC2)C1 (stereo in doubt; 66) | – | – | – | 160 (≈ 428 µM) |
| NC1CCN(c2c(F)c(Cl)c3c(=O)c(C(=O)O)cn(C4CC4)c3c2Cl)C1 (configuration not stated) | – | 0.13 (≈ 0.325 µM) | > 500 | – |
| CCNCC1CCN(c2c(F)cc3c(=O)c(C(=O)O)cn(C4CC4)c3c2Cl)C1 (stereo in doubt; 69) | 0.14 (≈ 0.343 µM) | – | – | – |
| O=C(O)c1cn(C2CC2)c2c(C(F)(F)F)c(N3CCNCC3)c(F)cc2c1=O | – | 0.15 (≈ 0.376 µM) | 1650 (≈ 4130 µM) | – |
| NC1CCN(c2nc3c(cc2F)c(=O)c(C(=O)O)cn3C2CC2)CC1 | – | 0.23 (≈ 0.664 µM) | 100 (≈ 289 µM) | – |
| Nc1c(F)c(N2CCC(N)C2)c(F)c2c1c(=O)c(C(=O)O)cn2C1CC1 (configuration not stated) | – | 0.01 (≈ 0.0274 µM) | 15 (≈ 41.2 µM) | – |

| Compound | MIC [1] [µg/mL] | MIC ([1]; read-out: MIC) [µg/mL] | IC50 (V79; [2]) [µg/mL] | IC50 (V79; v79) [µg/mL] |
| --- | --- | --- | --- | --- |
| NC1CCCN(c2cc3c(cc2F)c(=O)c(C(=O)O)cn3C2CC2)C1 (configuration not stated) | – | 0.91 (≈ 2.63 µM) | > 500 | – |
| COc1c(F)c(N2CCC(N)C2)c(Cl)c2c1c(=O)c(C(=O)O)cn2C1CC1 (configuration not stated) | – | 2.08 (≈ 5.25 µM) | > 500 | – |
| CCNCC1CCN(c2c(F)cc3c(=O)c(C(=O)O)cn(C4CC4)c3c2Cl)C1 (stereo in doubt; 37a) | – | – | < 11 | – |
| NC1CCN(c2c(F)cc3c(=O)c(C(=O)O)cn(C4CC4)c3c2Cl)C1 (stereo in doubt; 24c) [CLINAFLOXACIN] | – | 0.03 (≈ 0.082 µM) | 26 (≈ 71.1 µM) | – |
| NCC1CCN(c2c(F)cc3c(=O)c(C(=O)O)cn(C4CC4)c3c2Cl)C1 (configuration not stated) | – | 0.06 (≈ 0.158 µM) | 8 (≈ 21.1 µM) | – |
| CCNCC1CCN(c2cc3c(cc2F)c(=O)c(C(=O)O)cn3C2CC2)C1 (stereo in doubt; 26a) | – | 0.46 (≈ 1.23 µM) | 160 (≈ 428 µM) | – |
| NC1CCCN(c2nc3c(cc2F)c(=O)c(C(=O)O)cn3C2CC2)C1 (configuration not stated) | – | 0.4 (≈ 1.15 µM) | 100 (≈ 289 µM) | – |
| O=C(O)c1cn(C2CC2)c2nc(N3CCNCC3)c(F)cc2c1=O | – | 0.09 (≈ 0.271 µM) | 120 (≈ 361 µM) | – |
| NC1CCCN(c2c(F)cc3c(=O)c(C(=O)O)cn(C4CC4)c3c2C(F)(F)F)C1 (configuration not stated) | – | 0.52 (≈ 1.26 µM) | > 500 | – |
| CCNCC1CCN(c2c(F)cc3c(=O)c(C(=O)O)cn(C4CC4)c3c2F)C1 (stereo in doubt; 26b) [PD-117558] | – | – | – | 11 (≈ 28.1 µM) |
| COc1c(N2CCC(N)C2)c(F)cc2c(=O)c(C(=O)O)cn(C3CC3)c12 (stereo in doubt; 35a) | – | – | 45 (≈ 125 µM) | – |
| CC1(CN)CCN(c2c(F)cc3c(=O)c(C(=O)O)cn(C4CC4)c3c2Cl)C1 (configuration not stated) | – | 0.07 (≈ 0.178 µM) | 8 (≈ 20.3 µM) | – |
| CNCC1(C)CCN(c2nc3c(cc2F)c(=O)c(C(=O)O)cn3C2CC2)C1 (configuration not stated) | – | 0.6 (≈ 1.6 µM) | 58 (≈ 155 µM) | – |
| CC1(N)CCN(c2c(F)cc3c(=O)c(C(=O)O)cn(-c4ccc(F)cc4F)c3c2C(F)(F)F)C1 (configuration not stated) | – | 2.07 (≈ 4.26 µM) | 18 (≈ 37.1 µM) | – |
| COc1c(N2CCC(CN)C2)c(F)cc2c(=O)c(C(=O)O)cn(C3CC3)c12 (configuration not stated) | – | 0.11 (≈ 0.293 µM) | 10 (≈ 26.6 µM) | – |
| CCNCC1CCN(c2c(F)c(F)c3c(=O)c(C(=O)O)cn(C4CC4)c3c2F)C1 (configuration not stated) | – | 0.56 (≈ 1.37 µM) | 46 (≈ 112 µM) | – |
| COc1c(N2CC(C)NC(C)C2)c(F)cc2c(=O)c(C(=O)O)cn(C3CC3)c12 (configuration not stated) | – | 0.34 (≈ 0.873 µM) | > 500 | – |
| NCC1CCN(c2cc3c(cc2F)c(=O)c(C(=O)O)cn3C2CC2)C1 (configuration not stated) | – | 0.2 (≈ 0.579 µM) | 81 (≈ 235 µM) | – |
| O=C(O)c1cn(C2CC2)c2c(Cl)c(N3CCCC3)c(F)cc2c1=O | – | 0.1 (≈ 0.285 µM) | 150 (≈ 428 µM) | – |
| CC1CN(c2c(F)cc3c(=O)c(C(=O)O)cn(C4CC4)c3c2C(F)(F)F)CC(C)N1 (configuration not stated) | – | 0.91 (≈ 2.13 µM) | > 500 | – |
| CSc1c(F)c(N2CCC(N)C2)cc2c1c(=O)c(C(=O)O)cn2C1CC1 (configuration not stated) | – | > 1.58 | 92 (≈ 244 µM) | – |
| CC1CN(c2cc3c(cc2F)c(=O)c(C(=O)O)cn3C2CC2)CC(C)N1 (configuration not stated) | – | 0.08 (≈ 0.223 µM) | > 500 | – |
| CC1CN(c2c(F)cc3c(=O)c(C(=O)O)cn(C4CC4)c3c2C(F)(F)F)CCN1 (configuration not stated) | – | 0.6 (≈ 1.45 µM) | 220 (≈ 532 µM) | – |
| CCNCC1CCN(c2c(F)cc3c(=O)c(C(=O)O)cn(CC(F)(F)F)c3c2F)C1 (configuration not stated) | – | 1.82 (≈ 4.2 µM) | 58 (≈ 134 µM) | – |
| NC1CCN(c2c(F)cc3c(=O)c(C(=O)O)cn(C4CC4)c3c2F)C1 (stereo in doubt; 43) | – | – | – | 30 (≈ 85.9 µM) |
| CCn1cc(C(=O)O)c(=O)c2cc(F)c(N3CCN(C)CC3)cc21 [PEFLOXACIN] | – | 0.07 (≈ 0.21 µM) | – | – |
| CCNCC1CCN(c2c(F)cc3c(=O)c(C(=O)O)cn(C4CC4)c3c2F)C1 (stereo in doubt; 7) [PD-117558] | 0.09 (≈ 0.23 µM) | – | – | – |
